Values of other authors as cited in patent US8163312B2, “Herbal formulation for prevention and treatment of diabetes and associated complications” (Innoveda Biological Solutions (P) Ltd., priority 2008, dated 2012).

Legend:
[1] = system: mice; settings: sanjoinine-A given as one unit
[2] = molecular target: T1, PPAR-alpha (Homo sapiens, UniProt Q07869); settings: selective PPAR-alpha antagonist added
T1 construct: host or cells: human embryonic kidney 293 cells
T1 sequence (Q07869 1-468): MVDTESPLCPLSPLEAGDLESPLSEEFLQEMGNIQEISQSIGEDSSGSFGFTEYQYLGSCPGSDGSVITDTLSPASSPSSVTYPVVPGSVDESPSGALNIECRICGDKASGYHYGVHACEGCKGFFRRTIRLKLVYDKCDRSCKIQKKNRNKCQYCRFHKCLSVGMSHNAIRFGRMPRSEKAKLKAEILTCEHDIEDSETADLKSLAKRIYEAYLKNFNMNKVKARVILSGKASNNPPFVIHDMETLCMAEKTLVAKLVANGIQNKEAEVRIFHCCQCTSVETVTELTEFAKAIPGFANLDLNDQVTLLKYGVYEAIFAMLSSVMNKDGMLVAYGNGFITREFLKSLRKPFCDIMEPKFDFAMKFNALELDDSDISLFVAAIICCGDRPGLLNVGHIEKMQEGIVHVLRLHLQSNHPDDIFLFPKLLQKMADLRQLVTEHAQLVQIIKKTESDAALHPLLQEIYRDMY

[3] = system: alloxan induced diabetic rats

Compound | relative sedative potency [1] | further results
CN(C)CCCN1c2ccccc2Sc2ccc(Cl)cc21 [chlorpromazine] | 5 | 
CC(C)c1ccc2c(c1)c(SC(C)(C)C)c(CC(C)(C)C(=O)O)n2Cc1ccc(Cl)cc1 [MK-886] |  | effects of SO extract and mangiferin on PPAR-alpha luciferase and lipoprotein lipase [2]: completely suppressed
sanjoinine-Ahl | 3 | 
COc1cc2ccnc3c2c(c1OC)-c1ccccc1C3=O [lysicamine] | 6.5 | 
COc1cc(/C=C/C(=O)CC(=O)/C=C/c2ccc(O)c(OC)c2)ccc1O [curcumin] |  | activity of SDH (sorbitol dehydrogenase) [3]: lowered significantly; blood sugar, Hb and glycosylated hemoglobin levels [3]: reduced; oxidative stress (levels of TBRAS) [3]: reduced the oxidative stress
CC(C)C[C@@H]1NC(=O)[C@@H](NC(=O)[C@H](Cc2ccccc2)N(C)C)[C@H](C(C)C)Oc2ccc(cc2)/C=C\NC1=O [sanjoinine-A] | one | 
